Reference: ChEMBL document CHEMBL4507311, “Data for DCP probe A-1155463” (2021)
pKi: −log10 of the molar value. Active and inactive are the calls of the source. No cut-off for these calls is given here.

Assays:
[1] = biological target: 5-hydroxytryptamine receptor 3A (Homo sapiens, UniProt P46098); assay: GPCRScan assay: inhibition of 5-HT3; parameters: radioligand conc. used [nm] 1.0 – 2.0, parental cells HEKT
[2] = biological target: Sigma non-opioid intracellular receptor 1 (Homo sapiens, UniProt Q99720); assay: GPCRScan assay: inhibition of Sigma 1; parameters: radioligand conc. used [nm] 4.0 – 5.0, parental cells HEKT
[3] = tested on: NCI-H146; assay: CellTiter-Glo Luminescent Cell Viability Assay (BCL-XL dependent cell line H146); type: functional, cell-based; conditions: Homo sapiens
[4] = biological target: ALK tyrosine kinase receptor (Homo sapiens) (UniProt Q9UM73); conditions: Compound concentration 1000.0 nM
[5] = tested on: ALK tyrosine kinase receptor (Homo sapiens), Q9UM73 [C1156Y]; conditions: Compound concentration 1000.0 nM
[6] = biological target: Aurora kinase B (Homo sapiens) (UniProt Q96GD4); conditions: Compound concentration 1000.0 nM
[7] = biological target: Cyclin-dependent kinase 4 (Homo sapiens) (UniProt P11802); conditions: Compound concentration 1000.0 nM
[8] = biological target: Dual specificity protein kinase CLK1 (Homo sapiens) (UniProt P49759); conditions: Compound concentration 1000.0 nM
[9] = biological target: Macrophage colony-stimulating factor 1 receptor (Homo sapiens) (UniProt P07333); conditions: Compound concentration 1000.0 nM
[10] = biological target: Death-associated protein kinase 3 (Homo sapiens) (UniProt O43293); conditions: Compound concentration 1000.0 nM
[11] = biological target: Epithelial discoidin domain-containing receptor 1 (Homo sapiens) (UniProt Q08345); conditions: Compound concentration 1000.0 nM
[12] = biological target: Ephrin type-A receptor 6 (Homo sapiens) (UniProt Q9UF33); conditions: Compound concentration 1000.0 nM
[13] = biological target: Mitogen-activated protein kinase 15 (Homo sapiens) (UniProt Q8TD08); conditions: Compound concentration 1000.0 nM
[14] = biological target: Fibroblast growth factor receptor 3 (Homo sapiens) (UniProt P22607); conditions: Compound concentration 1000.0 nM
[15] = biological target: Rhodopsin kinase GRK7 (Homo sapiens) (UniProt Q8WTQ7); conditions: Compound concentration 1000.0 nM
[16] = biological target: Mitogen-activated protein kinase kinase kinase kinase 1 (Homo sapiens) (UniProt Q92918); conditions: Compound concentration 1000.0 nM
[17] = biological target: Tyrosine-protein kinase JAK3 (Homo sapiens) (UniProt P52333); conditions: Compound concentration 1000.0 nM
[18] = biological target: Mitogen-activated protein kinase kinase kinase 13 (Homo sapiens) (UniProt O43283); conditions: Compound concentration 1000.0 nM
[19] = biological target: Mitogen-activated protein kinase kinase kinase 1 (Homo sapiens) (UniProt Q13233); conditions: Compound concentration 1000.0 nM
[20] = biological target: Mitogen-activated protein kinase kinase kinase 3 (Homo sapiens) (UniProt Q99759); conditions: Compound concentration 1000.0 nM
[21] = biological target: Dual specificity mitogen-activated protein kinase kinase 2 (Homo sapiens) (UniProt P36507); conditions: Compound concentration 1000.0 nM
[22] = biological target: Dual specificity mitogen-activated protein kinase kinase 6 (Homo sapiens) (UniProt P52564); conditions: Compound concentration 1000.0 nM
[23] = tested on: Hepatocyte growth factor receptor (Homo sapiens), P08581 [M1250T]; conditions: Compound concentration 1000.0 nM
[24] = biological target: Myosin light chain kinase (Homo sapiens) (UniProt Q32MK0); conditions: Compound concentration 1000.0 nM
[25] = biological target: Mitogen-activated protein kinase kinase kinase 10 (Homo sapiens) (UniProt Q02779); conditions: Compound concentration 1000.0 nM
[26] = biological target: Serine/threonine-protein kinase MRCK alpha (Homo sapiens) (UniProt Q5VT25); conditions: Compound concentration 1000.0 nM
[27] = biological target: Mitogen-activated protein kinase 11 (Homo sapiens) (UniProt Q15759); conditions: Compound concentration 1000.0 nM
[28] = biological target: Serine/threonine-protein kinase PLK3 (Homo sapiens) (UniProt Q9H4B4); conditions: Compound concentration 1000.0 nM
[29] = biological target: Dual serine/threonine and tyrosine protein kinase (Homo sapiens) (UniProt Q6XUX3); conditions: Compound concentration 1000.0 nM
[30] = biological target: Rho-associated protein kinase 2 (Homo sapiens) (UniProt O75116); conditions: Compound concentration 1000.0 nM
[31] = biological target: Ribosomal protein S6 kinase alpha-4 (Homo sapiens) (UniProt O75676); conditions: Compound concentration 1000.0 nM
[32] = biological target: Ribosomal protein S6 kinase alpha-3 (Homo sapiens) (UniProt P51812); conditions: Compound concentration 1000.0 nM
[33] = biological target: Serine/threonine-protein kinase SBK1 (Homo sapiens) (UniProt Q52WX2); conditions: Compound concentration 1000.0 nM
[34] = biological target: Proto-oncogene tyrosine-protein kinase Src (Homo sapiens) (UniProt P12931); conditions: Compound concentration 1000.0 nM
[35] = biological target: Dual specificity protein kinase TTK (Homo sapiens) (UniProt P33981); conditions: Compound concentration 1000.0 nM
[36] = biological target: T1, 5-hydroxytryptamine receptor 1A (Homo sapiens) (UniProt P08908); conditions: Compound concentration 10.0 uM
T1 sequence (whole entry): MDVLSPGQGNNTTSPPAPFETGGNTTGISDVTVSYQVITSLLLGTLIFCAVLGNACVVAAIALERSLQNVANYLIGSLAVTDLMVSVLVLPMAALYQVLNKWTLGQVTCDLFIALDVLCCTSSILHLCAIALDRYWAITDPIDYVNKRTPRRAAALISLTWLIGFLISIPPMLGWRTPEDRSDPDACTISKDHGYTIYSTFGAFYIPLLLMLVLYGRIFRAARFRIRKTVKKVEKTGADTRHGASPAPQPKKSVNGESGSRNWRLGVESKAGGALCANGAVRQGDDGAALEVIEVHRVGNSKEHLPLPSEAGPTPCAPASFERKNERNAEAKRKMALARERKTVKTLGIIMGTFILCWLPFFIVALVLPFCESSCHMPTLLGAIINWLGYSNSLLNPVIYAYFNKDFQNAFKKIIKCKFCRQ

[37] = biological target: 5-hydroxytryptamine receptor 2B (Homo sapiens) (UniProt P41595); conditions: Compound concentration 10.0 uM
[38] = biological target: D(4) dopamine receptor (Homo sapiens) (UniProt P21917); conditions: Compound concentration 10.0 uM
[39] = biological target: Delta-type opioid receptor (Homo sapiens, UniProt P41143); conditions: Compound concentration 10.0 uM
[40] = biological target: Alpha-1D adrenergic receptor (Homo sapiens) (UniProt P25100); conditions: Compound concentration 10.0 uM

Sequence of 5-hydroxytryptamine receptor 3A (P46098 whole entry): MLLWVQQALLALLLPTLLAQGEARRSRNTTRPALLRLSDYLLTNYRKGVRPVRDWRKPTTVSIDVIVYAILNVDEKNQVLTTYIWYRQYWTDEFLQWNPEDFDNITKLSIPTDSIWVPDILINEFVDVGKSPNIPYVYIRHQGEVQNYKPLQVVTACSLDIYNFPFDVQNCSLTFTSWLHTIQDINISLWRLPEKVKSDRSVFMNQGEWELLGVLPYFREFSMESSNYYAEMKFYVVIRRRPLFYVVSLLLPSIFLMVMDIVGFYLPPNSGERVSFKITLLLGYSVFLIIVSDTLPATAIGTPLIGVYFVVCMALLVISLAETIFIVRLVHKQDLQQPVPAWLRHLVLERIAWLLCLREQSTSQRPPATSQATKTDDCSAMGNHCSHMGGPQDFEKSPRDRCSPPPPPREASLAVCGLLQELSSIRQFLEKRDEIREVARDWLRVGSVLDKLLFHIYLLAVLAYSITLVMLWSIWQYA
Sequence of ALK tyrosine kinase receptor (Homo sapiens), Q9UM73 [C1156Y] (Q9UM73 whole entry C1156Y, looked up): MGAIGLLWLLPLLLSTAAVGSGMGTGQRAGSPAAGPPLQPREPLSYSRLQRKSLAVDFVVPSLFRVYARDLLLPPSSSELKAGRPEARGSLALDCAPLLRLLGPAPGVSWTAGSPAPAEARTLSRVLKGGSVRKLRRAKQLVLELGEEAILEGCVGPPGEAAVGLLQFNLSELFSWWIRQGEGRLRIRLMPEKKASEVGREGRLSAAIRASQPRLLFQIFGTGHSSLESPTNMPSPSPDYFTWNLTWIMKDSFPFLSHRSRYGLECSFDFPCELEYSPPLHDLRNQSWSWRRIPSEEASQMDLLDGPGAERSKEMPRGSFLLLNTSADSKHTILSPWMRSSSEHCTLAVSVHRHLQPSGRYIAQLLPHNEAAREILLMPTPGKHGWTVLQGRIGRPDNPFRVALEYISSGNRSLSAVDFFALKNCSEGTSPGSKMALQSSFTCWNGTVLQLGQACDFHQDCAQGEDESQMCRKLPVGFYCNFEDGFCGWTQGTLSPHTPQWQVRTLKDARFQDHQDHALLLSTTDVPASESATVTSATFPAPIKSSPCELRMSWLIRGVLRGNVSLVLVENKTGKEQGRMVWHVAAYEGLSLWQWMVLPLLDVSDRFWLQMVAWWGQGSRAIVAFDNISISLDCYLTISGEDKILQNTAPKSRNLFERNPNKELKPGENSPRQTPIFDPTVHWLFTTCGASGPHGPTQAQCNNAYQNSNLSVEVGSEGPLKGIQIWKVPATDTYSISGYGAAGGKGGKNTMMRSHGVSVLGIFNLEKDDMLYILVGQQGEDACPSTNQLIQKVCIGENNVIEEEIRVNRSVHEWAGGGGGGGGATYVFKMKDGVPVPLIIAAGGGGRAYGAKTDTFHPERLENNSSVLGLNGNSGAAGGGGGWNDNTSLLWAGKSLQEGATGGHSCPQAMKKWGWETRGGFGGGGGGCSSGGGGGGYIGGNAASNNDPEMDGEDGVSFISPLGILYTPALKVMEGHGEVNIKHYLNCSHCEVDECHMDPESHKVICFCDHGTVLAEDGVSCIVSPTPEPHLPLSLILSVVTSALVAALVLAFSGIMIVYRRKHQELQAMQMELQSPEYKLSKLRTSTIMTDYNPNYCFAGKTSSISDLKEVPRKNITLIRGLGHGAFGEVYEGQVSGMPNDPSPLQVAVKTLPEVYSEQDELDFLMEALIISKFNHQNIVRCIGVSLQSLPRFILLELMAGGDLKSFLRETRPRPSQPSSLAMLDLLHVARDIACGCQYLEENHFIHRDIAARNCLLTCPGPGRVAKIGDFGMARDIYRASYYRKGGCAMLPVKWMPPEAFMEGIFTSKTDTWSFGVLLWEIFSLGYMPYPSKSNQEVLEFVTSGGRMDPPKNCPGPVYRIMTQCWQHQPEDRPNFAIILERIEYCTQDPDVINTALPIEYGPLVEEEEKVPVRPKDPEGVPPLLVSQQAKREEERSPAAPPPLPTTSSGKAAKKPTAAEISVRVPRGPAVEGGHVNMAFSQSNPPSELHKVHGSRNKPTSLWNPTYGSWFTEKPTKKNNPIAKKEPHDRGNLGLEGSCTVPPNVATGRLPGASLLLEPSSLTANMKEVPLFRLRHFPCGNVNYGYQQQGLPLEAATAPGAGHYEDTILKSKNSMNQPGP
Sequence of Serine/threonine-protein kinase SBK1 (Homo sapiens) (Q52WX2 whole entry): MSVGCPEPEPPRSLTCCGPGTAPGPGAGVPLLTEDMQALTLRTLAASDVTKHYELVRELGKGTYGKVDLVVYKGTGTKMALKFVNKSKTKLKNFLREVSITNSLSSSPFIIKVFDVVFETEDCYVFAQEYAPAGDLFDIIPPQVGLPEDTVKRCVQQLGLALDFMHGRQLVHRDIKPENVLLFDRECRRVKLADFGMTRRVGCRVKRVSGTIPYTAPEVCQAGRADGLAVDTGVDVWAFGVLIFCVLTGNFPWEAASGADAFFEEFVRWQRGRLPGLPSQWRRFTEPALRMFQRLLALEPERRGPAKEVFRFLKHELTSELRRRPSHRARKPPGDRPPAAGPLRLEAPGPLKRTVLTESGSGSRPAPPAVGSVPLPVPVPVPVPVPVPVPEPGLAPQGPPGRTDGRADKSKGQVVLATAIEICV
Sequence of Ephrin type-A receptor 6 (Homo sapiens) (Q9UF33 whole entry): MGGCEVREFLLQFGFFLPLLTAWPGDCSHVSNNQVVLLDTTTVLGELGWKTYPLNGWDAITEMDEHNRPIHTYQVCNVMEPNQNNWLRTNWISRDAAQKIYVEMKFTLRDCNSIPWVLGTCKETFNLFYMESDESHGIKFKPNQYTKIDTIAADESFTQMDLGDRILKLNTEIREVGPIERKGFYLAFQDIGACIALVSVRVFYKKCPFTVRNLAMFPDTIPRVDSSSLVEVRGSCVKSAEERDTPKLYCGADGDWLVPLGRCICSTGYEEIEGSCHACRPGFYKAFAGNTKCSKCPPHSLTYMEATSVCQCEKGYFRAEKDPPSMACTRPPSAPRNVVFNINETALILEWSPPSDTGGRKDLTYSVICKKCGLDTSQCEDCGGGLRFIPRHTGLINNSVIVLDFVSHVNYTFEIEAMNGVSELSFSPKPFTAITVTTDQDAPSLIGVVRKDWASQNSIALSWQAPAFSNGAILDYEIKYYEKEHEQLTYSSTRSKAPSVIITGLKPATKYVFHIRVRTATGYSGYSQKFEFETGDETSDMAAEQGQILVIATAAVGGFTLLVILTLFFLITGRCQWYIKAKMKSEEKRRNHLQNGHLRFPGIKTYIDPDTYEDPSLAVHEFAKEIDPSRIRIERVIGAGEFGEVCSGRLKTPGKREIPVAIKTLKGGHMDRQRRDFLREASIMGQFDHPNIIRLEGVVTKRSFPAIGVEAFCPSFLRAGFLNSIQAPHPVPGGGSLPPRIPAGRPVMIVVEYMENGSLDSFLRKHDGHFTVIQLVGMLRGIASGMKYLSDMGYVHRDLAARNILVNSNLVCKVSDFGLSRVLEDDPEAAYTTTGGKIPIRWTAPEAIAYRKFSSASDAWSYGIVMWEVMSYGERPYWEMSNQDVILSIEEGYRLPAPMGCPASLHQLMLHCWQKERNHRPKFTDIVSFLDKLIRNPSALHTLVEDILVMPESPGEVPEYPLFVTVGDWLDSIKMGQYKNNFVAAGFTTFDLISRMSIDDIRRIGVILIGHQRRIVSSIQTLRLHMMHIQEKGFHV
Sequence of Macrophage colony-stimulating factor 1 receptor (Homo sapiens) (P07333 whole entry): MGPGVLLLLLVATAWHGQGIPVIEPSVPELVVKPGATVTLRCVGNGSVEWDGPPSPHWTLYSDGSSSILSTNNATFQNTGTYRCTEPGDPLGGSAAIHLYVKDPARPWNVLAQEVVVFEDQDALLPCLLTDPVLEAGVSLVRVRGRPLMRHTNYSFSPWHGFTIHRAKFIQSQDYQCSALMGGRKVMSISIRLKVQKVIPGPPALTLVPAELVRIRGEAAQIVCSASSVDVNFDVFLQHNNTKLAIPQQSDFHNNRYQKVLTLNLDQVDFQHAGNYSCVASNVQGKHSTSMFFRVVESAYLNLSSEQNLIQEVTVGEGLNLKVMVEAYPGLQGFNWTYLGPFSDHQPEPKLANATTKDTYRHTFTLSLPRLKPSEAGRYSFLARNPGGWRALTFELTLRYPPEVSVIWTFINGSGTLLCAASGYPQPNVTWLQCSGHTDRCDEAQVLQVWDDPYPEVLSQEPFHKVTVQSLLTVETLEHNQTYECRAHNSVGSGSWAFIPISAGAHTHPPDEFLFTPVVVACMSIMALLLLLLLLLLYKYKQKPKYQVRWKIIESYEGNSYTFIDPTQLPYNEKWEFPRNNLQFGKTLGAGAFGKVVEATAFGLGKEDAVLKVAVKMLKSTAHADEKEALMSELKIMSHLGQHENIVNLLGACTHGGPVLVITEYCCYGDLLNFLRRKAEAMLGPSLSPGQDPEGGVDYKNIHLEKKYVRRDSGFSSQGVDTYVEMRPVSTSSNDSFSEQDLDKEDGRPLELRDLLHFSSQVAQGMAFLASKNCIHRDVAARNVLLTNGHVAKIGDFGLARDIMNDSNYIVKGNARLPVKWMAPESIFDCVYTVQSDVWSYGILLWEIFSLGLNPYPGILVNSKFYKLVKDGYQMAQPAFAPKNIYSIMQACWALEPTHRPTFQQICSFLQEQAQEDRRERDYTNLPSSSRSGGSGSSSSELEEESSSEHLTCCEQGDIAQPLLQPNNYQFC
Sequence of Dual specificity mitogen-activated protein kinase kinase 6 (Homo sapiens) (P52564 whole entry): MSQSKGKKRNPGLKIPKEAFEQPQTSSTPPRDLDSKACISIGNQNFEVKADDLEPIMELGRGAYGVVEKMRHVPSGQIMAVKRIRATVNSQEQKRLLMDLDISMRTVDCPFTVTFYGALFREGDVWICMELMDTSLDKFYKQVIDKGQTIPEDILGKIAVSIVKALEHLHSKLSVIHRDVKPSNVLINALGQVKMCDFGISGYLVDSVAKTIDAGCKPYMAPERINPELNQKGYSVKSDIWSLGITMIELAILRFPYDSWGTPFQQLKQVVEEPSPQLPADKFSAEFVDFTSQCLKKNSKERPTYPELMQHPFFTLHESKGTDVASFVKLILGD

`CN(C)CC#Cc1ccc(OCCCc2sc(N3CCc4cccc(C(=O)Nc5nc6ccccc6s5)c4C3)nc2C(=O)O)c(F)c1` [A-1155463] was tested, and the pKi ([1]; read-out: Ki) was 5.94, the Ki ([1]; read-out: pKi (converted)) was 1.07 µM and the pKi [2] was 6.87. The EC50 [3] was 0.07 µM (active), the residual activity [4] was 100% and the residual activity [5] was 100%. For the same compound, the residual activity [6] was 79%, the residual activity [7] was 100% and the residual activity [8] was 88%. For the same compound, the residual activity [9] was 100%, the residual activity [10] was 90% and the residual activity [11] was 100%. It also gave a residual activity [12] of 100%, a residual activity [13] of 100% and a residual activity [14] of 98%. It also gave a residual activity [15] of 97%, a residual activity [16] of 93% and a residual activity [17] of 58%. For the same compound, the residual activity [18] was 96%, the residual activity [19] was 100% and the residual activity [20] was 90%. The residual activity [21] was 100%, the residual activity [22] was 100% and the residual activity [23] was 100%. It also gave a residual activity [24] of 78%, a residual activity [25] of 100% and a residual activity [26] of 97%. For the same compound, the residual activity [27] was 100%, the residual activity [28] was 92% and the residual activity [29] was 100%. For the same compound, the residual activity [30] was 100%, the residual activity [31] was 100% and the residual activity [32] was 100%. It also gave a residual activity [33] of 100%, a residual activity [34] of 100% and a residual activity [35] of 92%. The inhibition [36] was 5.18%, the inhibition [37] was 5.67% and the inhibition [38] was -3.48%. It also gave an inhibition [39] of 54.6% and an inhibition [40] of 1.52%.
